# From ChEMBL document CHEMBL3137667, “[Drug-induced liver injury; fourteenth updated edition of the bibliographic database of liver injuries and related drugs]” (Gastroenterol Clin Biol, 2004)
# Legend:
# [1] = Highest frequency of moderate liver toxicity observed during clinical trials, expressed as a percentage. [column '% BIOL' in source]; conditions: human
# [2] = Highest frequency of acute liver toxicity observed during clinical trials, expressed as a percentage. [column '% AIGUE' in source]; conditions: human
# [3] = Comments (NB not yet translated). [column 'COMMENTAIRES' in source]; conditions: human
# [4] = Times to onset, minimal and maximal, observed in the indexed observations. [column 'DELAI' in source]; conditions: human
# [5] = Proposed mechanism(s) of liver damage. [column 'MEC' in source]; conditions: human
# [6] = human, serum
# [7] = human, serum; remark: listed apart in the source
# [8] = human
# [9] = human; remark: listed apart in the source
# [10] = human; remark: listed apart in the source
# [11] = human, serum, 4383 h
# [12] = human; remark: listed apart in the source
# [13] = human; remark: listed apart in the source
# [14] = human; remark: listed apart in the source
# [15] = human; remark: listed apart in the source
# [16] = human; remark: listed apart in the source
# [17] = human; remark: listed apart in the source
# 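Wherever Hepatotoxicity (association with vascular disease) is given: count of indexed literature references reporting vascular liver injury in humans, e.g. peliosis hepatitis, hepatic veno-occlusive disease or Budd-Chiari syndrome.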
# 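Wherever Hepatotoxicity (benign tumour) is given: value is a count of indexed literature references citing a benign tumour confirmed by histopathology.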
# 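Wherever Hepatotoxicity (choleostasis) is given: human cholestatic liver injury, shown by histopathology or by peak ALT or AST elevation over alkaline phosphatase ratio below 2, value counts indexed literature reports.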
# 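Wherever Hepatotoxicity (chronic liver disease) is given: chronic liver injury confirmed by histopathology or persistently raised serum aminotransferase activity beyond 6 months, value given as the count of indexed literature references.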
# 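Wherever Hepatotoxicity (cirrhosis) is given: value is a count of indexed literature references reporting cirrhosis confirmed by histopathology.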
# 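Wherever Hepatotoxicity (cytolytic) is given: human cytolytic liver injury, shown by histopathology or by a ratio above 5 of peak ALT or AST elevation to alkaline phosphatase elevation, value counts indexed references.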
# 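Wherever Hepatotoxicity (granulomatous hepatitis) is given: value is a count of indexed literature references reporting granulomatous liver disease confirmed by histopathology.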
# 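Wherever Hepatotoxicity (malignant tumour) is given: malignant tumour confirmed by histopathology, value gives the count of indexed literature references reporting it.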
# 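Wherever Hepatotoxicity (severe hepatitis) is given: human clinical data: severe hepatitis, meaning potentially life-threatening liver failure or clinically observed cases, the value counts how many indexed literature references report it.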
# 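Wherever Hepatotoxicity (steatosis) is given: steatosis confirmed by histopathology, value is the count of indexed references.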
Compound,Hepatotoxicity (moderate) [1],Hepatotoxicity (acute) [2],Hepatotoxicity (comment) [3],Hepatotoxicity (time to onset) [4],Hepatotoxicity (mechanism) [5],Hepatotoxicity (moderate) [6],Hepatotoxicity (acute) [7],Hepatotoxicity (cytolytic) [8],Hepatotoxicity (choleostasis) [9],Hepatotoxicity (severe hepatitis) [10],Hepatotoxicity (chronic liver disease) [11],Hepatotoxicity (cirrhosis) [12],Hepatotoxicity (granulomatous hepatitis) [13],Hepatotoxicity (association with vascular disease) [14],Hepatotoxicity (steatosis) [15],Hepatotoxicity (malignant tumour) [16],Hepatotoxicity (benign tumour) [17],further results
CCc1cc2c(s1)N(C)C(=O)CN=C2c1ccccc1Cl [CLOTIAZEPAM],0%,0%,AC_ANTI-N,7 months,Allergic,0,2,2,0,0,0,0,0,0,0,0,0,
CC(S)C(=O)NCC(=O)O (centres undefined) [TIOPRONIN],0%,2.1%,CHOLESTASE_PROLONGEE #CBP,19 days - 2 years,Allergic,1,10,1,8,0,3,0,0,0,1,0,0,
NCCCC[C@H](N[C@@H](CCc1ccccc1)C(=O)O)C(=O)N1CCC[C@H]1C(=O)O [LISINOPRIL ANHYDROUS],7.7%,0%,AC_ANTI-ML RC/LISINOPRIL,9 days - 5 months,Allergic,4,3,2,0,1,1,0,0,0,0,0,0,
COc1cc([C@@H]2c3cc4c(cc3[C@@H](O[C@@H]3O[C@@H]5CO[C@@H](C)O[C@H]5[C@H](O)[C@H]3O)[C@H]3COC(=O)[C@H]23)OCO4)cc(OC)c1O [ETOPOSIDE],,,MVO,1 week - 5 weeks,,24,4,,,,0,0,,10,0,0,0,Hepatotoxicity (moderate) ([1]; Liver): 50%; Hepatotoxicity (acute) ([2]; Liver): 1%; Hepatotoxicity (mechanism) ([5]; Liver): Dose-dependant; Hepatotoxicity (cytolytic) ([8]; Liver): 2; Hepatotoxicity (choleostasis) ([9]; Liver): 2; Hepatotoxicity (severe hepatitis) ([10]; Liver): 5; Hepatotoxicity (granulomatous hepatitis) ([13]; Liver): 0
COc1ccc2[nH]cc(CCNC(C)=O)c2c1 [MELATONIN],0%,0%,AC_ANTI-ML,3 weeks,Allergic,0,1,1,0,0,0,0,0,0,0,0,0,
CC(CN(C)C)CN1c2ccccc2CCc2ccccc21 (centres undefined) [TRIMIPRAMINE],0%,0%,RC/DESIPRAMINE/CYAMEMAZINE,2 weeks - 3 weeks,Dose-dependant,2,2,1,0,0,0,0,0,0,0,0,0,
O=C(O)c1cc(-c2ccc(F)cc2F)ccc1O [DIFLUNISAL],,,AC_ANTI-ML,1 week - 1 month,,2,5,,,,0,0,,0,0,0,0,Hepatotoxicity (moderate) ([1]; Liver): 5%; Hepatotoxicity (acute) ([2]; Liver): 0%; Hepatotoxicity (mechanism) ([5]; Liver): Allergic; Hepatotoxicity (cytolytic) ([8]; Liver): 2; Hepatotoxicity (choleostasis) ([9]; Liver): 4; Hepatotoxicity (severe hepatitis) ([10]; Liver): 0; Hepatotoxicity (granulomatous hepatitis) ([13]; Liver): 1
